Test results as given in the supplement of paper PMC11208160.

Assay: recombinant UMI read abundance after kanamycin selection (control-corrected) (log10(CPM+1)); higher = more efficient recombination; extreme values may be limits of the assay; sequences stand for … in AGTGCAGAGAAAATCGGCCAGTTTTCTCTGCCTGCAGTCCGCATGCCGTGGGACCCCTTGGGTTCTAACCTGTTGCCTAGATTTATGCAGCGGACTGCCTTTCTCCCAAAGTGATAAACCGG…AGGTTGGTTTCACT; site = the 11-nt donor
How it was run: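 In Escherichia coli, a pool of donor and donor-binding-loop pairs, each with a 12-nt UMI, was tested for the IS621 bridge recombinase. Plating was on IPTG (0.07 mM) plus kanamycin, or without selection, in two replicates. Recombinant UMIs were amplified by PCR across the donor–target junction and sequenced, and counts were reported as log10(CPM+1) after averaging and control-derived scaling.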
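Also: IS621 bridge recombinase in Escherichia coli cells against a fixed T5 target plasmid.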

Going from “CAAGCGCCATGGACCGGTTTTCCCGGTAATCCGTATTTGTA (site CAAGCGCCTCA)” to “CAAGCGCCATGGACCGGTTTTCCCGGTAATCCGTATTTGTA (site CAAGCGCCTGA)”, the “recombinant UMI read abundance (log10)” value rises from 0.173 to 1.01.

Going from “CAAGCGCCATGGACCGGTTTTCCCGGTAATCCGTATTTGTA (site CAAGCGCCTTA)” to “CAAGCGTCATGGACCGGTTTTCCCGGTAATCCGTATTTGTG (site CAAGCGACTCA)”, the “recombinant UMI read abundance (log10)” value falls from 1.49 to 0.101.

“CAAGCGTCATGGACCGGTTTTCCCGGTAATCCGTATTTGTG (site CAAGCGCCTCA)” and “CAAGCGTCATGGACCGGTTTTCCCGGTAATCCGTATTTGTG (site CAAGCGGCTCA)” are within 0.2 log units of each other in “recombinant UMI read abundance (log10)” value: 0.0275 for the first, 0.00505 for the second.

First: CAAGCGTCATGGACCGGTTTTCCCGGTAATCCGTATTTGTG (site CAAGCGTCTCA)
Second: CAAGGAACATGGACCGGTTTTCCCGGTAATCCGTATTTGCT (site CAAGGAACTAG)
The “recombinant UMI read abundance (log10)” value of the first is higher: 2.6 for the first, 2.26 for the second.

Compared with “CAAGGAGCATGGACCGGTTTTCCCGGTAATCCGTATTTGCT (site CAAGAAGCTAG)”, “CAAGGAGCATGGACCGGTTTTCCCGGTAATCCGTATTTGCT (site CAAGCAGCTAG)” is lower in “recombinant UMI read abundance (log10)” value: 2.45 for the first, 2.16 for the second.

Compared with “CAAGGAGCATGGACCGGTTTTCCCGGTAATCCGTATTTGCT (site CAAGGAGCTAG)”, “CAAGGAGCATGGACCGGTTTTCCCGGTAATCCGTATTTGCT (site CAAGTAGCTAG)” is lower in “recombinant UMI read abundance (log10)” value: 2.76 for the first, 2.2 for the second.

“CAAGGCCCATGGACCGGTTTTCCCGGTAATCCGTATTTGTC (site CAAGGCCCTGA)” and “CAAGGCTCATGGACCGGTTTTCCCGGTAATCCGTATTTGAA (site CAAAGCTCTTT)” are within 0.2 log units of each other in “recombinant UMI read abundance (log10)” value: 2.07 for the first, 2.15 for the second.

Compared with “CAAGGCTCATGGACCGGTTTTCCCGGTAATCCGTATTTGAA (site CAACGCTCTTT)”, “CAAGGCTCATGGACCGGTTTTCCCGGTAATCCGTATTTGAA (site CAAGGCTCTTT)” is higher in “recombinant UMI read abundance (log10)” value: 0.00296 for the first, 2.71 for the second.

Going from “CAAGGCTCATGGACCGGTTTTCCCGGTAATCCGTATTTGAA (site CAATGCTCTTT)” to “CAAGTATCATGGACCGGTTTTCCCGGTAATCCGTATTTGAC (site CAAGTATCTGT)”, the “recombinant UMI read abundance (log10)” value rises from 0.368 to 2.94.

Going from “CAAGTATCATGGACCGGTTTTCCCGGTAATCCGTATTTGAC (site CCAGTATCTGT)” to “CAAGTATCATGGACCGGTTTTCCCGGTAATCCGTATTTGAC (site CGAGTATCTGT)”, the “recombinant UMI read abundance (log10)” value rises from 0.955 to 2.2.

First: CAAGTATCATGGACCGGTTTTCCCGGTAATCCGTATTTGAC (site CTAGTATCTGT)
Second: CAAGTCACATGGACCGGTTTTCCCGGTAATCCGTATTTGGT (site CAAGTCACTAC)
The “recombinant UMI read abundance (log10)” value of the first is higher: 2.04 for the first, 1.84 for the second.

Compared with “CAAGTCACATGGACCGGTTTTCCCGGTAATCCGTATTTGGT (site CAAGTCACTCC)”, “CAAGTCACATGGACCGGTTTTCCCGGTAATCCGTATTTGGT (site CAAGTCACTGC)” is higher in “recombinant UMI read abundance (log10)” value: 0.00397 for the first, 2.43 for the second.

First: CAAGTCACATGGACCGGTTTTCCCGGTAATCCGTATTTGGT (site CAAGTCACTTC)
Second: CAAGTCACATGGACCGGTTTTCCCGGTAATCCGTATTTGTT (site CAAGTCACTAA)
The “recombinant UMI read abundance (log10)” value of the first is lower: 0.155 for the first, 2.2 for the second.

Going from “CAATACACATGGACCGGTTTTCCCGGTAATCCGTATTTGCA (site CAATACACTTG)” to “CAATACCCATGGACCGGTTTTCCCGGTAATCCGTATTTGCT (site CAATACCCTAG)”, the “recombinant UMI read abundance (log10)” value falls from 2.2 to 1.93.

Going from “CAATACCCATGGACCGGTTTTCCCGGTAATCCGTATTTGCT (site CAATCCCCTAG)” to “CAATACCCATGGACCGGTTTTCCCGGTAATCCGTATTTGCT (site CAATGCCCTAG)”, the “recombinant UMI read abundance (log10)” value falls from 1.55 to 0.00435.

First: CAATACCCATGGACCGGTTTTCCCGGTAATCCGTATTTGCT (site CAATTCCCTAG)
Second: CAATAGCCATGGACCGGTTTTCCCGGTAATCCGTATTTGCC (site CAATAGCCTGG)
The “recombinant UMI read abundance (log10)” value of the first is lower: 0 for the first, 0.755 for the second.

Going from “CAATATCCATGGACCGGTTTTCCCGGTAATCCGTATTTGTT (site CAATATCCTAA)” to “CAATCAGCATGGACCGGTTTTCCCGGTAATCCGTATTTGCT (site CAAACAGCTAG)”, the “recombinant UMI read abundance (log10)” value falls from 1.7 to 0.

Going from “CAATCAGCATGGACCGGTTTTCCCGGTAATCCGTATTTGCT (site CAACCAGCTAG)” to “CAATCAGCATGGACCGGTTTTCCCGGTAATCCGTATTTGCT (site CAAGCAGCTAG)”, the “recombinant UMI read abundance (log10)” value falls from 0.798 to 0.0241.

Going from “CAATCAGCATGGACCGGTTTTCCCGGTAATCCGTATTTGCT (site CAATCAGCTAG)” to “CAATCCTCATGGACCGGTTTTCCCGGTAATCCGTATTTGAA (site CAATACTCTTT)”, the “recombinant UMI read abundance (log10)” value rises from 0.199 to 1.33.
